Source: patent publication US12139492B2 (Endotarget Inc., priority 2021, dated 2024)
Where two headings read alike, the source gives them in different places.

Key:
Mino cells = test: Antiproliferative effect, MTS cell viability assay, Mino cells; type: cell-based; settings: Homo sapiens, Mino mantle cell lymphoma cells, read-out: IC50 (anti-proliferation) Mino cells
In short: (§1)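 Tested at six concentrations (0 to 10 μM in tenfold steps), 72 h; viability by MTS, A490.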

JeKo-1 cells = test: Antiproliferative effect, MTS cell viability assay, JeKo-1 cells; type: cell-based; settings: Homo sapiens; JeKo-1 mantle cell lymphoma cells; read-out: IC50 (anti-proliferation) JeKO-1 cells
In short: as §1

BTK = BTK (Homo sapiens, UniProt Q06187); test: Degradation of BTK protein in Namalwa cells (Western blot; DC50, Dmax); settings: for DC50: cell line not given; for degradation of BTK protein: Namalwa B lymphocyte cells, various concentrations, 24 hours, Western blot
Sequence of BTK (Q06187 whole entry): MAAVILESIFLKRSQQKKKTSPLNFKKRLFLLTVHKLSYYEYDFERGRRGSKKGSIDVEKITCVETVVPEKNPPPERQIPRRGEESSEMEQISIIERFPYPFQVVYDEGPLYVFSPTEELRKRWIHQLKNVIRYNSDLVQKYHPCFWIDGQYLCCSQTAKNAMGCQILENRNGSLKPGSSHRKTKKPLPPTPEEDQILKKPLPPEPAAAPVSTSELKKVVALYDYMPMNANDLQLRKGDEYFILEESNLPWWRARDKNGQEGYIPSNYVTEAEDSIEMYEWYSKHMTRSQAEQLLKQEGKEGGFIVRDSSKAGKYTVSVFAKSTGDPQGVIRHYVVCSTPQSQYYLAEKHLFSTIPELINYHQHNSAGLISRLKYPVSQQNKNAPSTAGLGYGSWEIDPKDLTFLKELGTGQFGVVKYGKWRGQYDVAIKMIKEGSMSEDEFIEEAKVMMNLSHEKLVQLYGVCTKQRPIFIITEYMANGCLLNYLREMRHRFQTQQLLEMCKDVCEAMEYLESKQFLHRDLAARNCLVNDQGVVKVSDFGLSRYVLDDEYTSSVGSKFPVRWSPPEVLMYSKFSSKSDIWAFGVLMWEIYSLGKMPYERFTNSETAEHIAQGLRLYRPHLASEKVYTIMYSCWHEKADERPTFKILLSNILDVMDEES

[1] = read-out: DC50 (BTK degradation), concentration giving 50% reduction of BTK expression level
[2] = read-out: Dmax (BTK degradation)

SMILES | Dmax (BTK) [%] | DC50 (BTK; BTK degradation) [nM] | DC50 (BTK; [1]) [nM] | Dmax (BTK; [2]) [%] | IC50 (Mino cells; MINO) [nM] | IC50 (JeKo-1 cells) [nM] | degradation of BTK protein (BTK) | IC50 (Mino cells) [nM]
Nc1ncnc2c1c(-c1ccc(Oc3ccccc3)cc1)nn2C1CCN(C2CCN(C(=O)N3CCC(CCC4CCN(c5ccc6c(c5)C(=O)N(C5CCC(=O)NC5=O)C6=O)CC4)CC3)CC2)CC1 (centres unmarked) [Compound 255, 5-(4-(2-(1-(4-(4-amino-3-(4-phenoxyphenyl)-1H-pyrazolo[3,4-d]pyrimidin-1-yl)-[1,4′-bipiperidine]-1′-carbonyl)piperidin-4-yl)ethyl)piperidin-1-yl)-2-(2,6-dioxopiperidin-3-yl)isoindoline-1,3-dione] | > 90 | 10 to 50 | – | – | < 1000 | 1000 to 10000 | – | –
Nc1ncnc2c1c(-c1ccc(Oc3ccccc3)cc1)nn2C1CCN(C2CCN(CC3CCN(CC4CN(c5ccc6c(c5)CN(C5CCC(=O)NC5=O)C6=O)C4)CC3)CC2)CC1 (centres unmarked) [Compound 436, 3-(5-(3-((4-((4-(4-amino-3-(4-phenoxyphenyl)-1H-pyrazolo[3,4-d]pyrimidin-1-yl)-[1,4′-bipiperidin]-1′-yl)methyl)piperidin-1-yl)methyl)azetidin-1-yl)-1-oxoisoindolin-2-yl)piperidine-2,6-dione] | – | – | < 10 | > 90 | < 1000 | 1000 to 10000 | – | –
Nc1ncnc2c1c(-c1ccc(Oc3ccccc3)cc1)nn2C1CCN(CC2CN(CC3CN(c4ccc5c(c4)C(=O)N(C4CCC(=O)NC4=O)C5=O)C3)C2)CC1 (centres unmarked) [Compound 441, 5-(3-((3-((4-(4-amino-3-(4-phenoxyphenyl)-1H-pyrazolo(3,4-d)pyrimidin-1-yl)piperidin-1-yl)methyl)azetidin-1-yl)methyl)azetidin-1-yl)-2-(2,6-dioxopiperidin-3-yl)isoindoline-1,3-dione] | – | – | – | < 50 | > 10000 | > 10000 | dose-dependent degradation | –
Nc1ncnc2c1c(-c1ccc(Oc3ccccc3)cc1)nn2C1CCN(C[C@H]2CCN(CC3CN(CC4CN(c5ccc6c(c5)C(=O)N(C5CCC(=O)NC5=O)C6=O)C4)C3)C2)CC1 (stereo partly drawn) [Compound 427a, 5-(3-((3-(((R)-3-((4-(4-amino-3-(4-phenoxyphenyl)-1H-pyrazolo[3,4-d]pyrimidin-1-yl)piperidin-1-yl)methyl)pyrrolidin-1-yl)methyl)azetidin-1-yl)methyl)azetidin-1-yl)-2-(2,6-dioxopiperidin-3-yl)isoindoline-1,3-dione] | – | – | > 50 | > 90 | 1000 to 10000 | 1000 to 10000 | – | –
NC(=O)c1c(-c2ccc(Oc3ccccc3)cc2)nn2c1NCC[C@H]2C1CCN(C(=O)N2CCN(CCN3CCC(c4ccc5c(c4)CN(C4CCC(=O)NC4=O)C5=O)CC3)CC2)CC1 (stereo partly drawn) [Compound 304, (7S)-7-(1-(4-(2-(4-(2-(2,6-dioxopiperidin-3-yl)-1-oxoisoindolin-5-yl)piperidin-1-yl)ethyl)piperazine-1-carbonyl)piperidin-4-yl)-2-(4-phenoxyphenyl)-4,5,6,7-tetrahydropyrazolo[1,5-a]pyrimidine-3-carboxamide] | > 75 | 10 to 50 | – | – | 1000 to 10000 | 1000 to 10000 | – | –
NC1=NC=NC2C1C(c1ccc(Oc3ccccc3)cc1)=NN2C1CCN(C(=O)N2CCN(C3CN(c4ccc5c(c4)CN(C4CCC(=O)NC4=O)C5=O)C3)CC2)CC1 (centres unmarked) [Compound 504, 3-(5-(3-(4-(4-(4-amino-3-(4-phenoxyphenyl)-3a,7a-dihydro-1H-pyrazolo[3,4-d]pyrimidin-1-yl)piperidine-1-carbonyl)piperazin-1-yl)azetidin-1-yl)-1-oxoisoindolin-2-yl)piperidine-2,6-dione] | – | – | < 10 | > 90 | < 1000 | < 1000 | – | –
Nc1ncnc2c1c(-c1ccc(Oc3ccccc3)cc1)nn2C1CCN(C2CCN(C(=O)N3CCN(CCCC4CCN(c5ccc6c(c5)CN(C5CCC(=O)NC5=O)C6=O)CC4)CC3)CC2)CC1 (centres unmarked) [Compound 260, 3-(5-(4-(3-(4-(4-(4-amino-3-(4-phenoxyphenyl)-1H-pyrazolo[3,4-d]pyrimidin-1-yl)-[1,4′-bipiperidine]-1′-carbonyl)piperazin-1-yl)propyl)piperidin-1-yl)-1-oxoisoindolin-2-yl)piperidine-2,6-dione] | > 75 | 10 to 50 | – | – | 1000 to 10000 | 1000 to 10000 | – | –
Nc1ncnc2c1c(-c1ccc(Oc3ccccc3)cc1)nn2C1CCN(CC2CCN(CC3CCN(c4ccc5c(c4)CN(C4CCC(=O)NC4=O)C5=O)CC3)CC2)CC1 (centres unmarked) [Compound 200, 3-(5-(4-((4-((4-(4-amino-3-(4-phenoxyphenyl)-1H-pyrazolo(3,4-d)pyrimidin-1-yl)piperidin-1-yl)methyl)piperidin-1-yl)methyl)piperidin-1-yl)-1-oxoisoindolin-2-yl)piperidine-2,6-dione] | < 50 | > 50 | – | – | – | 1000 to 10000 | dose-dependent degradation | 1000 to 10000
NC(=O)c1c(-c2ccc(Oc3ccccc3)cc2)nn2c1NCC[C@H]2C1CCN(CC2CCN(CCN3CCN(c4ccc5c(c4)C(=O)N(C4CCC(=O)NC4=O)C5=O)CC3)CC2)CC1 (stereo partly drawn) [Compound 331, (7S)-7-(1-((1-(2-(4-(2-(2,6-dioxopiperidin-3-yl)-1,3-dioxoisoindolin-5-yl)piperazin-1-yl)ethyl)piperidin-4-yl)methyl)piperidin-4-yl)-2-(4-phenoxyphenyl)-4,5,6,7-tetrahydropyrazolo[1,5-a]pyrimidine-3-carboxamide] | > 75 | > 50 | – | – | > 10000 | 1000 to 10000 | – | –

More lines, main results first:

Dmax (BTK) [%] | DC50 (BTK; BTK degradation) [nM] | DC50 (BTK; [1]) [nM] | Dmax (BTK; [2]) [%] | SMILES | IC50 (Mino cells; MINO) [nM] | IC50 (JeKo-1 cells) [nM] | degradation of BTK protein (BTK) | IC50 (Mino cells) [nM]
> 90 | < 10 | – | – | NC(=O)c1c(-c2ccc(Oc3ccccc3)cc2)nn2c1NCC[C@H]2C1CCN(C2CCN(C(=O)N3CCN(C4CCN(c5ccc6c(c5)C(=O)N(C5CCC(=O)NC5=O)C6=O)CC4)CC3)CC2)CC1 (stereo partly drawn) [Compound 385, (7S)-7-(1′-(4-(1-(2-(2,6-dioxopiperidin-3-yl)-1,3-dioxoisoindolin-5-yl)piperidin-4-yl)piperazine-1-carbonyl)-[1,4′-bipiperidin]-4-yl)-2-(4-phenoxyphenyl)-4,5,6,7-tetrahydropyrazolo[1,5-a]pyrimidine-3-carboxamide] | < 1000 | 1000 to 10000 | – | –
> 75 | > 50 | – | – | NC(=O)c1c(-c2ccc(Oc3ccccc3)cc2)nn2c1NCC[C@H]2C1CCN(C2CCN(C(=O)N3CCN(Cc4ccc5c(c4)CN(C4CCC(=O)NC4=O)C5=O)CC3)CC2)CC1 (stereo partly drawn) [Compound 380, (7S)-7-(1′-(4-((2-(2,6-dioxopiperidin-3-yl)-1-oxoisoindolin-5-yl)methyl)piperazine-1-carbonyl)-[1,4′-bipiperidin]-4-yl)-2-(4-phenoxyphenyl)-4,5,6,7-tetrahydropyrazolo[1,5-a]pyrimidine-3-carboxamide] | 1000 to 10000 | > 10000 | – | –
> 90 | 10 to 50 | – | – | NC(=O)c1c(-c2ccc(Oc3ccccc3)cc2)nn2c1NCC[C@H]2C1CCN(C(=O)N2CCC(CC3CCN(c4ccc5c(c4)CN(C4CCC(=O)NC4=O)C5=O)CC3)CC2)CC1 (stereo partly drawn) [Compound 294, (7S)-7-(1-(4-((1-(2-(2,6-dioxopiperidin-3-yl)-1-oxoisoindolin-5-yl)piperidin-4-yl)methyl)piperidine-1-carbonyl)piperidin-4-yl)-2-(4-phenoxyphenyl)-4,5,6,7-tetrahydropyrazolo[1,5-a]pyrimidine-3-carboxamide] | < 1000 | 1000 to 10000 | – | –
> 90 | 10 to 50 | – | – | NC(=O)c1c(-c2ccc(Oc3ccccc3)cc2)nn2c1NCCC2C1CCN(CC2CCN(C(=O)N3CCN(C4CCN(c5ccc6c(c5)C(=O)N(C5CCC(=O)NC5=O)C6=O)CC4)CC3)CC2)CC1 (centres unmarked) [Compound 361, 7-(1-((1-(4-(1-(2-(2,6-dioxopiperidin-3-yl)-1,3-dioxoisoindolin-5-yl)piperidin-4-yl)piperazine-1-carbonyl)piperidin-4-yl)methyl)piperidin-4-yl)-2-(4-phenoxyphenyl)-4,5,6,7-tetrahydropyrazolo[1,5-a]pyrimidine-3-carboxamide] | 1000 to 10000 | 1000 to 10000 | – | –
> 75 | > 50 | – | – | Nc1ncnc2c1c(-c1ccc(Oc3ccccc3)cc1)nn2C1CCN(C2CCN(C(=O)N3CCN(C4CCN(c5ccc6c(c5)C(=O)N(C5CCC(=O)NC5=O)C6=O)CC4)CC3)CC2)CC1 (centres unmarked) [Compound 233, 5-(4-(4-(4-(4-amino-3-(4-phenoxyphenyl)-1H-pyrazolo[3,4-d]pyrimidin-1-yl)-[1,4′-bipiperidine]-1′-carbonyl)piperazin-1-yl)piperidin-1-yl)-2-(2,6-dioxopiperidin-3-yl)isoindoline-1,3-dione] | 1000 to 10000 | 1000 to 10000 | – | –
> 90 | 10 to 50 | – | – | NC(=O)c1c(-c2ccc(Oc3ccccc3)cc2)nn2c1NCC[C@H]2C1CCN(C2CCN(C(=O)N3CCC(CN4CCN(c5ccc6c(c5)C(=O)N(C5CCC(=O)NC5=O)C6=O)CC4)CC3)CC2)CC1 (stereo partly drawn) [Compound 389, (7S)-7-(1′-(4-((4-(2-(2,6-dioxopiperidin-3-yl)-1,3-dioxoisoindolin-5-yl)piperazin-1-yl)methyl)piperidine-1-carbonyl)-[1,4′-bipiperidin]-4-yl)-2-(4-phenoxyphenyl)-4,5,6,7-tetrahydropyrazolo[1,5-a]pyrimidine-3-carboxamide] | 1000 to 10000 | 1000 to 10000 | – | –
> 90 | 10 to 50 | – | – | NC(=O)c1c(-c2ccc(Oc3ccccc3)cc2)nn2c1NCCC2C1CCN(C(=O)N2CCC(CN3CCC(c4ccc5c(c4)C(=O)N(C4CCC(=O)NC4=O)C5=O)CC3)CC2)CC1 (centres unmarked) [Compound 279, 7-(1-(4-((4-(2-(2,6-dioxopiperidin-3-yl)-1,3-dioxoisoindolin-5-yl)piperidin-1-yl)methyl)piperidine-1-carbonyl)piperidin-4-yl)-2-(4-phenoxyphenyl)-4,5,6,7-tetrahydropyrazolo[1,5-a]pyrimidine-3-carboxamide] | 1000 to 10000 | 1000 to 10000 | – | –
